Test results published in patent US12459891B2, “1-[1-(4-benzyloxy-3,5-difluoro-benzoyl)-4-fluoro-pyrrolidine-2-carbonyl]-pyrrolidine-2-carbonitrile” (ACCURE THERAPEUTICS, S.L., priority 2020, dated 2025).

What was measured:
MK-801-treated mice = assay: Novel object recognition (NOR) task, MK-801-induced cognitive deficit; type: in vivo, male C57/Bl6 mice; settings: mean ± s.e.m.
POP = settings: non-competitive POP inhibitor; read-out: IC50 (POP inhibition); cited from earlier work

Row | SMILES | % discrimination index (MK-801-treated mice; MK 801 0.2 mg/kg sc alone (vehicle ip), intraperitoneal experiment) | % discrimination index (MK-801-treated mice; MK 801 0.2 mg/kg sc alone (vehicle po), oral experiment) | IC50 (POP)
1 | C[C@]12N[C@H](Cc3ccccc31)c1ccccc12 [MK 801, Dizocilpine] | 21 ± 4.7% | 16.6 ± 5.9% | –
2 | O=C(/C=C/c1ccc(O)c(O)c1)O[C@H](Cc1ccc(O)c(O)c1)C(=O)O [rosmarinic acid] | – | – | 63.7 µM
